Experiments:
Format in all cases: binding
Conditions in all cases: Compound Concentration 10 µM
[1] = biological target: T1, panel of 442 kinases (Homo sapiens, UniProt O95819)
T1 construct: purchased KINOMEscan
Description: (§1) We assessed the selectivity of members of this scaffold using the KINOMEscan methodology across a near comprehensive panel of 442 kinases [[18,27]].

[2] = biological target: T2, panel of 442 kinases (Homo sapiens, UniProt P32298)
T2 construct: purchased KINOMEscan
Description: as §1

[3] = biological target: T3, panel of 442 kinases (Homo sapiens, UniProt Q9BZL6)
T3 construct: purchased KINOMEscan
T3 sequence (Q9BZL6 1-878): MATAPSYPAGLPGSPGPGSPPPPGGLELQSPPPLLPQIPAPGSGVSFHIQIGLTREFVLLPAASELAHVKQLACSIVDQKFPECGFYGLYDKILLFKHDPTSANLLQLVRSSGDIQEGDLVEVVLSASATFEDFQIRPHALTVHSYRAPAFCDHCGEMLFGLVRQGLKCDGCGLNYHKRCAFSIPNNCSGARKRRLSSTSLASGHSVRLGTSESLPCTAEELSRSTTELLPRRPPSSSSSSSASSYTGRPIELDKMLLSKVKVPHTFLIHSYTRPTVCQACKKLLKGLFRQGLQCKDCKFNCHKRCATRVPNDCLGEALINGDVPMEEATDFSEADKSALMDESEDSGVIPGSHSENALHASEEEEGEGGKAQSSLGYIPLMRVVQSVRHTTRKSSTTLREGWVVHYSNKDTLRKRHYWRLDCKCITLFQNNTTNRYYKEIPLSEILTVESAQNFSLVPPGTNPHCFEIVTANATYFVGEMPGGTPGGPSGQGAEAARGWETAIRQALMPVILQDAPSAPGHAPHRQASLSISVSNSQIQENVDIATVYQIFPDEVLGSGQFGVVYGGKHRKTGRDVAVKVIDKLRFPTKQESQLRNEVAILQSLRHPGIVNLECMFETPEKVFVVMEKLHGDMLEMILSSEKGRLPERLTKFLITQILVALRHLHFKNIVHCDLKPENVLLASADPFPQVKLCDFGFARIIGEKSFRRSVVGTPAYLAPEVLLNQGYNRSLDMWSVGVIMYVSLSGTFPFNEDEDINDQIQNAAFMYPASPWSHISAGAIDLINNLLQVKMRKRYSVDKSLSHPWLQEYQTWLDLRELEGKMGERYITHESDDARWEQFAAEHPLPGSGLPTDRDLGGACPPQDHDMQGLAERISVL
Description: as §1

T2 sequence (P32298 whole entry): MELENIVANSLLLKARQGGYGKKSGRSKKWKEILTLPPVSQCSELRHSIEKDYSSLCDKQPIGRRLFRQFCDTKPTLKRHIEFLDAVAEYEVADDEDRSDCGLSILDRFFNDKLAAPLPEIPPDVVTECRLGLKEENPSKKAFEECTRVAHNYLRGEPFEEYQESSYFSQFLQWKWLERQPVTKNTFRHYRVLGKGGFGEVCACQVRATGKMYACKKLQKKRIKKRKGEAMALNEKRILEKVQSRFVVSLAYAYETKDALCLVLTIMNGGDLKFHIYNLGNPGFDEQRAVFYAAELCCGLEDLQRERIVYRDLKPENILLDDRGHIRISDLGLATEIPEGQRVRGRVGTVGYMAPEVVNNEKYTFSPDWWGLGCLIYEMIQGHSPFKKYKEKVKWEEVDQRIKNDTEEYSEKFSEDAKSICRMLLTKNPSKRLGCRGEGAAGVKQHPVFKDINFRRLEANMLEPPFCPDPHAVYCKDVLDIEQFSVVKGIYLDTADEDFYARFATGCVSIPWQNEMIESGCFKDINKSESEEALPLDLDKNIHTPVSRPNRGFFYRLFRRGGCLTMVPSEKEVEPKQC
T1 sequence (O95819 whole entry): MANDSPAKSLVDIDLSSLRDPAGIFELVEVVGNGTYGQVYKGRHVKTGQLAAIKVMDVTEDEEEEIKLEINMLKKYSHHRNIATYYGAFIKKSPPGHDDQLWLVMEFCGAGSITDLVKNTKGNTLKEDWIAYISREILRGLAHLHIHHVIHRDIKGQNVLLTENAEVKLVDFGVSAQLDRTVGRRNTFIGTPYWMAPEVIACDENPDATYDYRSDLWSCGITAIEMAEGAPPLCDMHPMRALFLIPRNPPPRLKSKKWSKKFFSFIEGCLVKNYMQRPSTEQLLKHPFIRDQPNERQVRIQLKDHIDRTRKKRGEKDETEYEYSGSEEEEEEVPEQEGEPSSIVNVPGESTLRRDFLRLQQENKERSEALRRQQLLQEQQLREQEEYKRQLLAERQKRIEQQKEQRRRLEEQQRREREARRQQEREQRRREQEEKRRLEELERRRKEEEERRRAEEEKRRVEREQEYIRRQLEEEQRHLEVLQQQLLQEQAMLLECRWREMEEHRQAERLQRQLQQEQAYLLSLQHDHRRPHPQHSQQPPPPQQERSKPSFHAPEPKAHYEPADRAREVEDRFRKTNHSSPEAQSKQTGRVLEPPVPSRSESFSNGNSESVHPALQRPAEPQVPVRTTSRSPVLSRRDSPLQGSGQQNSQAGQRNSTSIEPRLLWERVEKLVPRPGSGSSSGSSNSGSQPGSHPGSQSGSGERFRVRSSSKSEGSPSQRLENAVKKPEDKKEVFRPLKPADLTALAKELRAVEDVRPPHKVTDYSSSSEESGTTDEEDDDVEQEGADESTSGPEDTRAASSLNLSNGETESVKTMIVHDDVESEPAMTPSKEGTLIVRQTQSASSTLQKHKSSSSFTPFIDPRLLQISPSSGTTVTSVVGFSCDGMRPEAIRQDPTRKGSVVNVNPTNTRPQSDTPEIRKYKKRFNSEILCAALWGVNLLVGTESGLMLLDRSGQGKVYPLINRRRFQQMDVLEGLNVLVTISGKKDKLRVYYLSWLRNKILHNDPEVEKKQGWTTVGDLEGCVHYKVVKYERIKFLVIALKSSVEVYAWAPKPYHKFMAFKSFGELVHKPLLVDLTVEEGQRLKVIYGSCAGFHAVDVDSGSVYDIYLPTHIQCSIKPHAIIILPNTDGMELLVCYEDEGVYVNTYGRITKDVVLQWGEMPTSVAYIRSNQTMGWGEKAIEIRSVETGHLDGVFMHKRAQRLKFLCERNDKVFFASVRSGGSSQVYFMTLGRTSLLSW

Structure (SMILES)	KINOMEscan: MAP4K4 [1]	KINOMEscan: GRK4 [2]	KINOMEscan: PRKD2 [3]
CCOc1cc(C(=O)N2CCC(N3CCN(C)CC3)CC2)ccc1Nc1ncc2c(n1)N(C1CCCC1)c1ccccc1C(=O)N2C [Compound 26]	96	100	100
COc1cc(C(=O)N2CCC(N3CCN(C)CC3)CC2)ccc1Nc1ncc2c(n1)N(C1CCCC1)c1ccccc1C(=O)N2C [Compound 25, 11-cyclopentyl-2-((2-methoxy-4-(4-(4-methylpiperazin-1-yl)piperidine-1-carbonyl)phenyl)amino)-5-methyl-5H-benzo[e]pyrimido[5,4-b][1,4]diazepin-6(11H)-one]	98	98	87
COc1cc(C(=O)N2CCC(N3CCN(C)CC3)CC2)ccc1Nc1ncc2c(n1)N1CCc3cccc(c31)C(=O)N2C [Compound 24]	35	–	30
COc1cc(C(=O)N2CCC(N3CCN(C)CC3)CC2)ccc1Nc1ncc2c(n1)N(C)c1ccccc1C(=O)N2C [15 (LRRK2-IN-1)]	85	86	59
